# According to PubChem BioAssay AID2743 (NMMLSC, 2010):
# Activity calls are given as the source filed them.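 The calls were made as follows: active = fitted half-maximal concentration for change in GFP expression of 33 µM or less; inactive = the rest.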
# Assay: concentration-dependent AGP1-GFP change, TOR pathway – cell-based, flow cytometry, S. cerevisiae, MLPCN hits, dose response (AID 2743)
# Conditions: S. cerevisiae AGP1-GFP strain, flow cytometry GFP, 3 h; at 33 µM (top of the series)
row,SMILES,GFP fluorescence (kMESF)
1,CCN(CC(=O)NC(C)(C)C)C(=O)COc1c(Cl)cc(Cl)c2ccc(C)nc12,35.5 kMESF (inactive)
2,COc1ccccc1C(=O)NNC(=S)NC(=O)c1cccs1,48 kMESF (inactive)
3,O=c1[nH]c(-c2ccc(Cl)cc2)cs1,39.4 kMESF (inactive)
4,CCc1nc2ccccc2c(=O)n1NC(=O)c1c(O)c2ccccc2n(CC)c1=O,18.7 kMESF (inactive)
5,O=C(/C=C/c1ccc(F)cc1)NC(=S)NNC(=O)c1cnccn1,35.8 kMESF (inactive)
6,O=C(Nc1nnc(-c2ccc(F)cc2)o1)c1cc(Cl)sc1Cl,40.6 kMESF (inactive)
7,CCOc1cc(C=C2C(=O)c3ccccc3C2=O)ccc1OCC(=O)Nc1ccc(C)cc1,36.1 kMESF (inactive)
8,COc1ccccc1[C@@]1(C)ON(c2ccccc2C(F)(F)F)C1=O,30.9 kMESF (inactive)
9,Cc1c(N2C(=O)/C(=C\c3ccccc3O)SC2=S)c(=O)n(-c2ccccc2)n1C,44.8 kMESF (inactive)
10,Cc1ccc(O)c(N=Nc2nccs2)c1,30.4 kMESF (inactive)
11,COc1ccc(NC2=C(Cl)C(=O)N(CCc3ccccc3)C2=O)c(OC)c1,35.3 kMESF (inactive)
12,CC(=O)Oc1ccc(/C=c2\sc3ncnn3c2=O)cc1,36.7 kMESF (inactive)
13,CCc1cc(C(=O)Nc2nc(-c3ccccn3)cs2)sc1C,29.2 kMESF (inactive)
14,COc1ccc2c(c1)S/C(=C\C(=O)c1ccncc1)N2C,17.8 kMESF (inactive)
15,COc1cc(/C=C2\C(=O)N(CCC#N)N=C2C)c(Br)cc1OC(C)C,43.5 kMESF (inactive)
16,N#C/C(=C\c1ccccn1)c1nc2ccccc2s1,41.8 kMESF (inactive)
17,O=C(Oc1c(Cl)cc(Cl)c2cccnc12)c1cccc([N+](=O)[O-])c1,34.3 kMESF (inactive)
18,O=C(O)c1ccn2c(C(=O)c3ccccc3)c(-c3ccccc3)cc2c1,37.7 kMESF (inactive)
19,CCOC(=O)c1cc(-c2ccc(/C=C3/C(=O)NC(=O)C(C#N)=C3C)o2)ccc1Cl,28.2 kMESF (inactive)
20,CC(=O)Oc1ccc(N2C(=O)C3C4C=CC(O4)C3C2=O)cc1 (stereo not given),45.2 kMESF (inactive)
21,CCOc1ccc(N2C(=O)C(Cl)=C(Nc3ccccc3O)C2=O)cc1,43.1 kMESF (inactive)
22,CC(Oc1ccc2ccccc2c1)C(=O)NNC(=S)NC(=O)c1ccco1 (stereo not given),32.1 kMESF (inactive)
23,COC(=O)CCC(=O)OC1(C)C(=O)C2=COC(c3ccc(OC)cc3)=CC2=C(Br)C1=O (stereo not given),7.85 kMESF (inactive)

row,SMILES,GFP fluorescence (kMESF)
1,O=C(Nc1ccc(NC(=O)c2cc3ccccc3o2)cc1)c1ccco1,44.8 kMESF (inactive)
2,CCCc1ccc(OCC(=O)NNC(=S)NC(=O)c2ccco2)cc1,38.1 kMESF (inactive)
3,Cc1ccc(C(CC(=O)O)NC(=O)c2ccc(S(=O)(=O)N3CC(C)OC(C)C3)cc2)cc1 (stereo not given),36.9 kMESF (inactive)
4,O=C(CS(=O)c1ccccc1[N+](=O)[O-])Oc1ccc(Br)cc1 (stereo not given),42.8 kMESF (inactive)
5,Cc1ccccc1N1C(=O)C(Cl)=C(N2CCN(c3ccccc3)CC2)C1=O,41.1 kMESF (inactive)
6,C=CCOc1ccccc1C(=O)/C=C1/C(=O)Nc2ccccc21,43.2 kMESF (inactive)
7,Cc1c(C(=O)Nc2nc(-c3ccccn3)cs2)oc2ccccc12,35.6 kMESF (inactive)
8,CC1(C(=O)NC(=S)NNC(=O)c2ccncc2)CCCCC1,34.2 kMESF (inactive)
9,COc1cc(NC(=O)c2ccccc2[N+](=O)[O-])ccc1NC(=O)c1cc2ccccc2o1,44.3 kMESF (inactive)
10,Cc1ccc(C(=O)Sc2cccccc2=O)cc1,33 kMESF (inactive)
11,COc1ccccc1N=Cc1nc(-c2ccccc2)oc1OC(C)=O,35.1 kMESF (inactive)
12,COc1ccc(/C=C/C(=O)C2C(=O)C=C(C)OC2=O)cc1O (stereo not given),43 kMESF (inactive)
13,O=C1C2C3C=CC(CO)(O3)C2C(=O)N1c1ccc(-c2ccccc2)cc1 (stereo not given),40.8 kMESF (inactive)
14,CS(=O)(=O)c1sc(C#N)c2c1C(=O)CC(c1ccccc1)C2 (stereo not given),38.9 kMESF (inactive)
15,Cc1cccc(C(=O)NNC(=S)NC(=O)c2ccccc2)c1,44.8 kMESF (inactive)
16,CC(C)C[C@]1(c2ccccc2)ON(c2ccccc2C(F)(F)F)C1=O,34.6 kMESF (inactive)
17,Cc1ccc(NC(=O)CCc2ccccc2)cc1S(=O)(=O)N1CCOCC1,40.4 kMESF (inactive)
18,Nc1nc2ncc(CNc3ccc(C(=O)N[C@@H](CCC(=O)O)C(=O)O)cc3)nc2c(=O)[nH]1,29.1 kMESF (inactive)
19,CCOC(=O)c1c(C)oc2c1c(C(c1cccnc1)N1CCOCC1)c(O)c1ccccc12 (stereo not given),29.9 kMESF (inactive)
20,Cc1cc(C)c2c(c1)/C(=C/C(=O)c1ccc(Br)s1)C(=O)N2,42.9 kMESF (inactive)
21,Cc1[nH][nH]c(=O)c1C(c1ccc(-c2ccc(Cl)c(Cl)c2)o1)c1c(C)[nH][nH]c1=O,43.7 kMESF (inactive)
22,O=C(COc1ccccc1)N1CCN(c2ncnc3c2cnn3-c2ccccc2)CC1,35.1 kMESF (inactive)
